Laboratory results from PMC9120017, “Inhibition mechanism of the chloride channel TMEM16A by the pore blocker 1PBC” (Nature Communications, 2022).
Where two headings read alike, the source gives them in different places.

Biological target: T1, mouse TMEM16A mutant G510P (Mus musculus, UniProt Q8BHY3, G510P)
T1 construct: expressed in transfected cells; host or cells: HEK293T
T1 sequence (Q8BHY3 1-960 G510P): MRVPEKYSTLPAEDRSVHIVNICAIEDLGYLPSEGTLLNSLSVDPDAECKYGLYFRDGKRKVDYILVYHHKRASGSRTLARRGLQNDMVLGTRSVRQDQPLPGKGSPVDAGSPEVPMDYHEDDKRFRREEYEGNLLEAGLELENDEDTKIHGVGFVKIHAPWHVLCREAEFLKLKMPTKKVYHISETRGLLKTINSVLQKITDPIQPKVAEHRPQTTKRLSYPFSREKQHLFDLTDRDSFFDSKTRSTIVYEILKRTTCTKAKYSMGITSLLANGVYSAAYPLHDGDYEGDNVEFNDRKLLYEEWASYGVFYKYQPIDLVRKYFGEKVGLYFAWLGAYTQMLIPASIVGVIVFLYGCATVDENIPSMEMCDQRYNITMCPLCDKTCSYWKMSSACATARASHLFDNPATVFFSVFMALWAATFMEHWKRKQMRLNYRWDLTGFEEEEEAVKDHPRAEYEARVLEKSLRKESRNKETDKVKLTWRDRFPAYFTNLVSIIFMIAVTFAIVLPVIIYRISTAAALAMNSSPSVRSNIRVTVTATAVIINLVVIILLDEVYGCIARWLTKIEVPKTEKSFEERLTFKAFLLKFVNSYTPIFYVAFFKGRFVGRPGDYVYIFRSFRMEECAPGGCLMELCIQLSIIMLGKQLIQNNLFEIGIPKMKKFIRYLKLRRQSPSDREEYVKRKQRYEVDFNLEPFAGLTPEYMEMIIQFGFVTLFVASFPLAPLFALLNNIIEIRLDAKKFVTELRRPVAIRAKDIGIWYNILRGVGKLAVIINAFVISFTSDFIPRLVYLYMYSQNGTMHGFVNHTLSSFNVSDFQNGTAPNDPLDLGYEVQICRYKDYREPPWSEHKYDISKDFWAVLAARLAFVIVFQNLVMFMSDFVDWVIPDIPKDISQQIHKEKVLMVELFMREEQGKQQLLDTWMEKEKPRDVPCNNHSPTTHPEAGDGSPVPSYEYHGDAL
Assay: Inside-out patch recording of 1PBC block, mutant G510P
Assay type: cell-based
Conditions: for remaining activity at 3 µM: 1PBC 3; for remaining activity at 3 µM / remaining activity at 10 µM / remaining activity at 30 µM / remaining activity at 100 µM: read-out: fraction of unblocked current; for remaining activity at 10 µM: 1PBC 10; for remaining activity at 30 µM: 1PBC 30; for remaining activity at 100 µM: 1PBC 100
Protocol: HEK293T cells (ATCC CRL-1573) were maintained in Dulbecco’s modified Eagle’s medium (DMEM; Sigma-Aldrich) supplemented with 10 U ml^−1 penicillin, 0.1 mg ml^−1 streptomycin (Sigma-Aldrich), 2 mM L-glutamine (Sigma-Aldrich), and 10% FBS (Sigma-Aldrich) in a humidified atmosphere containing 5% CO2 at 37 °C. HEK293S GnTI^− cells (ATCC CRL-3022) were maintained in HyClone HyCell TransFx-H medium (GE Healthcare) supplemented with 10 U ml^−1 penicillin, 0.1 mg ml^−1 streptomycin, 4 mM L-glutamine, 0.15% poloxamer 188 (Sigma-Aldrich), and 1% FBS in an atmosphere containing 5% CO2 at 185 rpm at 37 °C. The ac splice variant of mouse TMEM16A (UniProt ID: Q8BHY3), mouse TMEM16B (UniProt ID: Q8CFW1), or mouse TMEM16F (UniProt ID: Q6P9J9) bearing a 3C cleavage site, a Venus YFP, a Myc tag, and a Streptavidin-binding peptide (SBP) downstream of the open reading frame in a modified pcDNA3.1 vector (Invitrogen) were used as described previously[21],[31]. Mutations were introduced using a modified QuikChange method[58] and were verified by sequencing.
HEK293T cells were transfected with 3–4 μg DNA per 6 cm Petri dish using the calcium phosphate co-precipitation method and were used within 24–96 h after transfection. Recordings were performed on inside-out patches excised from HEK293T cells expressing the construct of interest. Patch pipettes were pulled from borosilicate glass capillaries (O.D. 1.5 mm, I.D. 0.86 mm, Sutter Instrument) and were fire-polished with a microforge (Narishige) before use. Pipette resistance was typically 3–8 MΩ when filled with the recording solutions detailed below. Seal resistance was typically 4 GΩ or higher. Voltage-clamp recordings were made using Axopatch 200B, Digidata 1550, and Clampex 10.7 (Molecular Devices). Analog signals were filtered with the in-built 4-pole Bessel filter at 10 kHz and were digitized at 20 kHz. Solution exchange was achieved using a gravity-fed system through a theta glass pipette mounted on an ultra-fast piezo-driven stepper (Siskiyou). […] All recordings were performed at 20 °C.
A symmetrical ionic condition was used throughout. Stock solution with Ca^2+-EGTA contained 150 mM NaCl, 5.99 mM Ca(OH)2, 5 mM EGTA, and 10 mM HEPES at pH 7.40. Stock solution with EGTA contained 150 mM NaCl, 5 mM EGTA, and 10 mM HEPES at pH 7.40. Free Ca^2+ concentrations were adjusted by mixing the stock solutions at the required ratios calculated using the WEBMAXC program (http://web.stanford.edu/~cpatton/webmaxcS.htm). Patch pipettes were filled with the stock solution with Ca^2+-EGTA, which has a free Ca^2+ concentration of 1 mM. 1PBC (ChemBridge) stock was reconstituted in anhydrous DMSO (Sigma-Aldrich) at 100 mM and stored at −20 °C. Working solutions with 1PBC were prepared by serial dilution. Unless otherwise stated, experiments were performed at a saturating Ca^2+ concentration as shown in Supplementary Table 1 and the primary data were corrected for current rundown as described previously[21],[25].
Concentration-response relations, obtained from the ratio of the I-V plots before and after the application of the blocker, were fitted to the Hill equation,1 I/Imax=1/1+IC50/[blocker]^h where I/Imax is the normalized current responses, IC50 defines the concentration at which inhibition is at its half-maximum, and h is the Hill coefficient.

IC50 (0 mV, 15 µM Ca2+): 65.7 µM
I/Imax_+80mV (3 μM 1PBC): 0.9738
I/Imax_-80mV (3 μM 1PBC, -80 mV): 0.9802
I/Imax_+80mV (10 μM 1PBC): 0.8477
I/Imax_-80mV (10 μM 1PBC, -80 mV): 0.885
I/Imax_+80mV (30 μM 1PBC): 0.6076
I/Imax_-80mV (30 μM 1PBC, -80 mV): 0.6861
I/Imax_+80mV (100 μM 1PBC): 0.3872
I/Imax_-80mV (100 μM 1PBC, -80 mV): 0.4945
remaining activity at 3 µM (0 mV): 95.8%
remaining activity at 3 µM (20 mV): 95.6%
remaining activity at 3 µM (40 mV): 96.9%
remaining activity at 3 µM (60 mV): 95.5%
remaining activity at 3 µM (80 mV): 97.4%
remaining activity at 3 µM (100 mV): 99.8%
remaining activity at 3 µM (120 mV): 99.8%
remaining activity at 3 µM (140 mV): 104%
remaining activity at 3 µM (-20 mV): 96%
remaining activity at 3 µM (-40 mV): 97.4%
remaining activity at 3 µM (-60 mV): 99%
remaining activity at 3 µM (-80 mV): 98%
remaining activity at 3 µM (-100 mV): 97.4%
remaining activity at 3 µM (-120 mV): 96.4%
remaining activity at 3 µM (-140 mV): 96%
remaining activity at 10 µM (0 mV): 86.9%
remaining activity at 10 µM (20 mV): 85.8%
remaining activity at 10 µM (40 mV): 85%
remaining activity at 10 µM (60 mV): 84.7%
remaining activity at 10 µM (80 mV): 84.8%
remaining activity at 10 µM (100 mV): 86%
remaining activity at 10 µM (120 mV): 86.5%
remaining activity at 10 µM (140 mV): 87.9%
remaining activity at 10 µM (-20 mV): 88%
remaining activity at 10 µM (-40 mV): 90.2%
remaining activity at 10 µM (-60 mV): 89.1%
remaining activity at 10 µM (-80 mV): 88.5%
remaining activity at 10 µM (-100 mV): 89.4%
remaining activity at 10 µM (-120 mV): 88.8%
remaining activity at 10 µM (-140 mV): 89%
remaining activity at 30 µM (0 mV): 64.5%
remaining activity at 30 µM (20 mV): 64.5%
remaining activity at 30 µM (40 mV): 63.6%
remaining activity at 30 µM (60 mV): 62.9%
remaining activity at 30 µM (80 mV): 60.8%
remaining activity at 30 µM (100 mV): 62.7%
remaining activity at 30 µM (120 mV): 62.8%
remaining activity at 30 µM (140 mV): 65.9%
remaining activity at 30 µM (-20 mV): 64.6%
remaining activity at 30 µM (-40 mV): 66.2%
remaining activity at 30 µM (-60 mV): 68.7%
remaining activity at 30 µM (-80 mV): 68.6%
remaining activity at 30 µM (-100 mV): 69.3%
remaining activity at 30 µM (-120 mV): 71.3%
remaining activity at 30 µM (-140 mV): 73.4%
remaining activity at 100 µM (0 mV): 43.2%
remaining activity at 100 µM (20 mV): 42.1%
remaining activity at 100 µM (40 mV): 40.7%
remaining activity at 100 µM (60 mV): 40.1%
remaining activity at 100 µM (80 mV): 38.7%
remaining activity at 100 µM (100 mV): 39.6%
remaining activity at 100 µM (120 mV): 40.6%
remaining activity at 100 µM (140 mV): 42.9%
remaining activity at 100 µM (-20 mV): 44.4%
remaining activity at 100 µM (-40 mV): 47.1%
remaining activity at 100 µM (-60 mV): 49.1%
remaining activity at 100 µM (-80 mV): 49.4%
remaining activity at 100 µM (-100 mV): 50.5%
remaining activity at 100 µM (-120 mV): 52.6%
remaining activity at 100 µM (-140 mV): 52.8%
IC50 (20 mV, 15 µM Ca2+): 63.2 µM
IC50 (40 mV, 15 µM Ca2+): 60.2 µM
IC50 (60 mV, 15 µM Ca2+): 58.2 µM
IC50 (80 mV, 15 µM Ca2+): 54.9 µM
IC50 (100 mV, 15 µM Ca2+): 59.3 µM
IC50 (120 mV, 15 µM Ca2+): 60.9 µM
IC50 (140 mV, 15 µM Ca2+): 69.5 µM
IC50 (-20 mV, 15 µM Ca2+): 68.2 µM
IC50 (-40 mV, 15 µM Ca2+): 76.6 µM
IC50 (-60 mV, 15 µM Ca2+): 83.4 µM
IC50 (-80 mV, 15 µM Ca2+): 83.4 µM
IC50 (-100 mV, 15 µM Ca2+): 87.4 µM
IC50 (-120 mV, 15 µM Ca2+): 94.4 µM
IC50 (-140 mV, 15 µM Ca2+): 98.6 µM
IC50 (G510P, V 0 mV): 65.7 µM
IC50 (G510P, V 20 mV): 63.2 µM
IC50 (G510P, V 40 mV): 60.2 µM
IC50 (G510P, V 60 mV): 58.2 µM
IC50 (G510P, V 80 mV): 54.9 µM
IC50 (G510P, V 100 mV): 59.3 µM
IC50 (G510P, V 120 mV): 60.9 µM
IC50 (G510P, V 140 mV): 69.5 µM
IC50 (G510P, V -20 mV): 68.2 µM
IC50 (G510P, V -40 mV): 76.6 µM
IC50 (G510P, V -60 mV): 83.4 µM
IC50 (G510P, V -80 mV): 83.4 µM
IC50 (G510P, V -100 mV): 87.4 µM
IC50 (G510P, V -120 mV): 94.4 µM
IC50 (G510P, V -140 mV): 98.6 µM
SMILES: N#Cc1c(C(F)(F)F)cc(O)n2c1nc1ccccc12 [1PBC]
